Results reported in US6627210B2, “Compositions containing α-2-adrenergic agonist components” (Allergan, Inc., priority 2000, dated 2003).
Like-named read-outs stand apart in the source and are kept apart here. Marks after values point to notes of the source that are not given here.

Assays:
[1] = for Solubility: 23° C., stirred 2 days
Description: Table 1. It will be understood that concentrations of adrenergic agonists other than 0.5% may be used, so long as they have therapeutic activity. Likewise, the temperature may be varied, for example, solubility curves may be performed at 37° C. (98.6° F.). The formulation vehicle was prepared by first dissolving polyvinyl alcohol (PVA) in water. The PVA was added to approximately ⅓ of the required total amount of purified water with constant stirring. The slurry was stirred for 20-30 minutes and then heated to 80-95° C. with constant stirring. The mixture was removed from the heat source within 1 hour after having reached the temperature of 80-90° C. and stirred for an additional 10 minutes to ensure homogeneity (Part I). The other ingredients of the Ophthalmic Solution, except for Brimonidine tartrate, were dissolved in a separate container with an additional ⅓ of the required total amount of purified water (Part II). The PVA mixture (Part I) was then quantitatively transferred to Part II using several rinse volumes of purified water. The solution was adjusted to final volume with purified water without pH adjustment.
Brimonidine tartrate was weighed and transferred to a 10 mL test tube containing 5 mL of the formulation vehicle described above. The pH of each sample was then adjusted to a desired value using dilute sodium hydroxide and/or dilute hydrochloric acid. The samples were placed in a rack on a stir plate and stirred at high speed to achieve uniform mixing for 2 days; a partition was placed between the rack and the stir plate to prevent any heat diffusion from the stir plate to the samples.
At the end of two days of stirring, the pH value of each sample was measured, and then approximately 1 mL of each sample was placed in a micro centrifuge tube (polypropylene) and centrifuged at 4,000 rpm for 10 minutes. The supernatant was filtered through a 1 μm filter unit (Whatman, 13 mm, PTFE). The first 3-4 drops of the filtrate were discarded; the rest of the filtrate was received and diluted quantitatively with HPLC mobile phase. The dilute sample was then injected directly on the HPLC column (Dupont Zorbax, 250 mm×4.6 mm, 5 μm) for Brimonidine tartrate assay in order to quantify the amount of Brimonidine tartrate. A control of 10.05% Brimonidine tartrate was prepared in the formulation vehicle at pH 6.3-6.5 and assayed before (untreated) and after (treated) centrifugation and filtration. This was done to evaluate the potential loss of Brimonidine tartrate in these two steps of the sample preparation. To ensure reproducibility, the study was repeated on consecutive days.

[2] = for Solubility of Brimonidine tartrate: 0% CMC
Description: The pH-solubility profiles of Brimonidine tartrate in compositions (solutions) containing SECs and oxy-chloro components were determined. Particularly, the effects of sodium carboxymethylcellulose (CMC), an SEC, on the solubility of Brimonidine tartrate at various pH conditions were determined. The various concentrations of CMC tested with Brimonidine tartrate were 0%, 0.056%, 0.17%, 0.5%, 1.5% (w/v), Table III.
The samples tested also contained isotonic components, buffer components, and stabilized chlorine dioxide (Purite™), Table III. Sodium carboxymethyl-cellulose, sodium chloride, potassium chloride, calcium chloride dihydrate, and magnesium chloride hexahydrate were USP grade. Boric acid and sodium borate decahydrate were NF grade.
Each sample (1 through 5) was subjected to a range of pH's from about 7 to about 10. The vials containing the sample solutions were placed on a laboratory rotator and left for equilibration for fifteen days at room temperature (˜21° C.). The sample solutions were filtered using a 25 mm diameter polysulfone cellulose acetate syringe type filter with 0.45 μm pore size. The filtered solutions were assayed for Brimonidine.
Conventional HPLC and detection techniques were used to detect and determine the concentrations of soluble Brimonidine tartrate. […] The solubility is plotted against pH for each CMC concentration. The experimental data points were fitted to a modified Henderson-Hasselbalch equation using a nonlinear least squares routine (Deltagraph version 4.0 DeltaPoint, Inc.), FIG. 1.

[3] = composition including chlorite, equilibrated ten days
Description: Brimonidine tartrate is added to a test tube containing a composition including chlorite. The test tube was allowed to equilibrate for ten days. Samples obtained from the test tube is analyzed.

## tartrate of 5-bromo-6-(2-imidozolin-2-ylamino) quinoxaline [Brimonidine tartrate]
[1]; Study 1, pH 5.55, Ophthalmic Solution vehicle, theoretical concentration based on sample weight, solution clear
  Solubility: ≧164.4^b % w/v
[1]; Study 1, pH 5.92, Ophthalmic Solution vehicle
  Solubility: 132.6 % w/v
[1]; Study 1, pH 6.14, Ophthalmic Solution vehicle
  Solubility: 30.4 % w/v
[1]; Study 1, pH 6.57, Ophthalmic Solution vehicle
  Solubility: 7.55 % w/v
[1]; Study 1, pH 7.00, Ophthalmic Solution vehicle
  Solubility: 2.69 % w/v
[1]; Study 1, pH 7.45, Ophthalmic Solution vehicle
  Solubility: 1.17 % w/v
[1]; Study 1, pH 7.83, Ophthalmic Solution vehicle
  Solubility: 0.62 % w/v
[1]; Study 2, pH 5.50, Ophthalmic Solution vehicle, theoretical concentration based on sample weight, solution clear
  Solubility: ≧200.6^b % w/v
[1]; Study 2, pH 5.92, Ophthalmic Solution vehicle
  Solubility: 160.8 % w/v
[1]; Study 2, pH 6.06, Ophthalmic Solution vehicle
  Solubility: 50.1 % w/v
[1]; Study 2, pH 6.90, Ophthalmic Solution vehicle
  Solubility: 3.19 % w/v
[1]; Study 2, pH 7.40, Ophthalmic Solution vehicle
  Solubility: 1.19 % w/v
[1]; Study 2, pH 7.77, Ophthalmic Solution vehicle
  Solubility: 0.63 % w/v
[1]; Study 2, pH 7.86, Ophthalmic Solution vehicle
  Solubility: 0.58 % w/v
[1]; Study 2, pH 7.88, Ophthalmic Solution vehicle
  Solubility: 0.54 % w/v
[1]; formulation vehicles, pH range of 5-8
  pH dependence of solubility: highly pH-dependent
[2]; pH 6.68, equilibrated fifteen days at room temperature (~21° C.)
  Solubility of Brimonidine tartrate: 1.4256%
[2]; pH 7.11, equilibrated fifteen days at room temperature (~21° C.)
  Solubility of Brimonidine tartrate: 0.2064%
[2]; pH 7.68, equilibrated fifteen days at room temperature (~21° C.)
  Solubility of Brimonidine tartrate: 0.0786%
[2]; pH 8.50, equilibrated fifteen days at room temperature (~21° C.)
  Solubility of Brimonidine tartrate: 0.0286%
[2]; pH 10.09, equilibrated fifteen days at room temperature (~21° C.)
  Solubility of Brimonidine tartrate: 0.0218%
[2]; pH 7.5, 0% CMC
  soluble Brimonidine tartrate (FIG. 1): 1000 ppm
[2]; pH 7.5, 0.056% CMC
  soluble Brimonidine tartrate (FIG. 1): 1300 ppm
[2]; pH 7.5, 0.17% CMC
  soluble Brimonidine tartrate (FIG. 1): 1300 ppm
[2]; pH 7.5, 0.5% CMC
  soluble Brimonidine tartrate (FIG. 1): 1600 ppm
[2]; pH 7.5, 1.5% CMC
  soluble Brimonidine tartrate (FIG. 1): about 1400 ppm
[3]
  formation of dimers: a portion of the Brimonidine tartrate monomer units conjugated to form dimers
